According to article PMC6834760 (2019):

Test system: Apt(ATP) (DNA, aptamer) TCTCTCACCTGGGGGAGTATTGCGGAGGAAGGT
Assay: FAM fluorescence quenching titration
Details: 100 mM NaCl, 5 mM MgCl2, 20 mM Tris-HCl, pH 7.4, 66.7 nM aptamer

`O=c1ccn([C@@H]2O[C@H](COP(=O)(O)OP(=O)(O)OP(=O)(O)O)[C@@H](O)[C@H]2O)c(=O)[nH]1` was tested, and the binding (weaker quenching than ATP, up to about 330 μM) was “weak”.

In the case of `Nc1ccn([C@@H]2O[C@H](COP(=O)(O)OP(=O)(O)OP(=O)(O)O)[C@@H](O)[C@H]2O)c(=O)n1`, the binding (35.7% quenching at about 330 μM) is reported as “weak”.

`Nc1nc2c(ncn2[C@@H]2O[C@H](COP(=O)(O)OP(=O)(O)OP(=O)(O)O)[C@@H](O)[C@H]2O)c(=O)[nH]1` was tested, and the binding (18.6% quenching at about 330 μM) was “weak”.

`Nc1ncnc2c1ncn2[C@@H]1O[C@H](COP(=O)(O)OP(=O)(O)OP(=O)(O)O)[C@@H](O)[C@H]1O` was tested, and the binding (67.1% quenching at about 0.33 mM ATP) was “yes”.
